According to ChEMBL document CHEMBL1154508, “Discovery of GSK345931A: An EP(1) receptor antagonist with efficacy in preclinical models of inflammatory pain” (Bioorg Med Chem Lett, 2009):
pEC50, pIC50, pKi: −log10 of the molar value.

What was measured:
[1] = Drug level in brain of sub-chronic rat joint pain efficacy model treatment group at 5 mg/kg bid measured on day 5 after 1 hr post dose; format: ADME, organism-based; parameters: dose 5 mg/kg; settings: read-out: Drug uptake
[2] = Solubility in simulated gastric fluid after 2 hrs; format: physicochemical
[3] = molecular target: T1, Peroxisome proliferator-activated receptor gamma (Homo sapiens, UniProt P37231); assay: Activity at PPARgamma
T1 sequence (P37231 whole entry): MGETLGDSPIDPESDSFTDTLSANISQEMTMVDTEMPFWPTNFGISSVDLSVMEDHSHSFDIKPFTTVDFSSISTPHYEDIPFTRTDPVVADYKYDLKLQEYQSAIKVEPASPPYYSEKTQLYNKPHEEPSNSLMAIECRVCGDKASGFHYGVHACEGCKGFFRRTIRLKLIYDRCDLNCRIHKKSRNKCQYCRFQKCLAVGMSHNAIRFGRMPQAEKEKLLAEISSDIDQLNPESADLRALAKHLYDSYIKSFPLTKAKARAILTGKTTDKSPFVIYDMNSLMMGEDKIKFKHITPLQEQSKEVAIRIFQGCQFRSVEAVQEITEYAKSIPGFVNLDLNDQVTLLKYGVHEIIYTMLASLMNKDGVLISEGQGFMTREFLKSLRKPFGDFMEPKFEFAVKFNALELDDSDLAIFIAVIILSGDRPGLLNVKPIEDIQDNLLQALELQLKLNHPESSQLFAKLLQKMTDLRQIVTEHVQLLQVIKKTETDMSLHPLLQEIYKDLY

[4] = Drug level in blood of complete Freund's adjuvant-induced rat inflammatory pain model at 1 mg/kg, po after 1 hr; format: ADME, organism-based; parameters: dose 1 mg/kg, route oral; settings: read-out: Drug uptake
[5] = molecular target: Prostaglandin F2-alpha receptor (Homo sapiens, UniProt P43088); assay: Activity at PGF2alpha receptor by FLIPR method
Chain of Prostaglandin F2-alpha receptor (P43088 whole entry): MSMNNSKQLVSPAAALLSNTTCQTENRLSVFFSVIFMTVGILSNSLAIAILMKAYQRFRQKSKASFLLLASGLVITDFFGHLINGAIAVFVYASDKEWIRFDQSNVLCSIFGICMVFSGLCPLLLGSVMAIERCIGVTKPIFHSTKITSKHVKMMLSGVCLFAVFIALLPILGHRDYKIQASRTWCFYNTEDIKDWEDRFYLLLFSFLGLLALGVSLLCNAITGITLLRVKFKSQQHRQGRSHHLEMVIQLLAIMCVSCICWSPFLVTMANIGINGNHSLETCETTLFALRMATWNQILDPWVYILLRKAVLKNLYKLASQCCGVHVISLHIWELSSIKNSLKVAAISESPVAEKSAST

[6] = Ratio of drug level in brain to blood in complete Freund's adjuvant-induced rat inflammatory pain model 3 mg/kg, po after 1 hr; format: ADME, organism-based; parameters: dose 3 mg/kg, route oral
[7] = Metabolic stability assessed as intrinsic clearance per gram of monkey liver microsomes; format: ADME, Macaca mulatta, Microsome; settings: rhesus monkey
[8] = Ratio of drug level in brain to blood in complete Freund's adjuvant-induced rat inflammatory pain model at 1 mg/kg, po after 1 hr; format: ADME, organism-based; parameters: dose 1 mg/kg, route oral
Thromboxane A2 receptor = molecular target: T2, Thromboxane A2 receptor (Homo sapiens, UniProt P21731); assay: Binding affinity to TP receptor
T2 sequence (P21731 whole entry): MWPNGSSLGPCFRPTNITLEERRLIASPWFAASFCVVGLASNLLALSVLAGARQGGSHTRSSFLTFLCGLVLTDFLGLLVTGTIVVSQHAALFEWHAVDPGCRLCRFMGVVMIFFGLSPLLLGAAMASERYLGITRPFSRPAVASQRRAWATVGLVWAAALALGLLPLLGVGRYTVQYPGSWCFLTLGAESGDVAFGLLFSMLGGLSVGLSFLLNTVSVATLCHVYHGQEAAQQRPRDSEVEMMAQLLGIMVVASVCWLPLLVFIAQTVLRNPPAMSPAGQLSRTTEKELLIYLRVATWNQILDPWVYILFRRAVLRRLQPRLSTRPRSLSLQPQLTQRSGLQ

Liver microsomes = assay: Metabolic stability assessed as intrinsic clearance per gram of human liver microsomes; format: ADME, Microsome
[9] = Ratio of drug level in brain to blood in mouse at 3 mg/kg, po after 0.5 hr; format: ADME, organism-based; parameters: dose 3 mg/kg, route oral
[10] = Steady state blood clearance in rat at 0.28 mg/kg/hr, iv for 18 hrs; format: ADME, organism-based; parameters: route intravenous
[11] = Drug level in brain of sub-chronic rat joint pain efficacy satellite animal group model at 5 mg/kg bid measured on day 5 after 1 hr post dose; format: ADME, organism-based; parameters: dose 5 mg/kg; settings: read-out: Drug uptake
[12] = Lipophilicity, log D at pH 7.4; format: physicochemical; settings: buffer
[13] = molecular target: T3, Peroxisome proliferator-activated receptor delta (Homo sapiens, UniProt Q03181); assay: Binding affinity PPARdelta
T3 sequence (Q03181 whole entry): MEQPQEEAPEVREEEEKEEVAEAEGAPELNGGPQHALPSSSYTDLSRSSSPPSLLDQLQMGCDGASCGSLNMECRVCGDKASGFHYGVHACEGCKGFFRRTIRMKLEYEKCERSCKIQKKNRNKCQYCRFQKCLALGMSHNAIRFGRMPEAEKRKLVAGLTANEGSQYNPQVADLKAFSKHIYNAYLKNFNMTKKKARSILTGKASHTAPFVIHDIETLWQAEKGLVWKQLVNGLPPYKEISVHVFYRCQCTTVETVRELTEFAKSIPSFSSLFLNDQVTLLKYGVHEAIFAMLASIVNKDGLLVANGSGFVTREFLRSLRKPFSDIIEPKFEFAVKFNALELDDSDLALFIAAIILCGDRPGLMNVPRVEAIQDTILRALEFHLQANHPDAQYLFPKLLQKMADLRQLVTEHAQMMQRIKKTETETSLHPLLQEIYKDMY

[14] = molecular target: T3, Peroxisome proliferator-activated receptor delta; assay: Activity at PPARdelta
[15] = molecular target: Voltage-gated inwardly rectifying potassium channel KCNH2 (Homo sapiens, UniProt Q12809); assay: Displacement of [3H]dofetilide from human ERG receptor
Chain of Voltage-gated inwardly rectifying potassium channel KCNH2 (Q12809 whole entry): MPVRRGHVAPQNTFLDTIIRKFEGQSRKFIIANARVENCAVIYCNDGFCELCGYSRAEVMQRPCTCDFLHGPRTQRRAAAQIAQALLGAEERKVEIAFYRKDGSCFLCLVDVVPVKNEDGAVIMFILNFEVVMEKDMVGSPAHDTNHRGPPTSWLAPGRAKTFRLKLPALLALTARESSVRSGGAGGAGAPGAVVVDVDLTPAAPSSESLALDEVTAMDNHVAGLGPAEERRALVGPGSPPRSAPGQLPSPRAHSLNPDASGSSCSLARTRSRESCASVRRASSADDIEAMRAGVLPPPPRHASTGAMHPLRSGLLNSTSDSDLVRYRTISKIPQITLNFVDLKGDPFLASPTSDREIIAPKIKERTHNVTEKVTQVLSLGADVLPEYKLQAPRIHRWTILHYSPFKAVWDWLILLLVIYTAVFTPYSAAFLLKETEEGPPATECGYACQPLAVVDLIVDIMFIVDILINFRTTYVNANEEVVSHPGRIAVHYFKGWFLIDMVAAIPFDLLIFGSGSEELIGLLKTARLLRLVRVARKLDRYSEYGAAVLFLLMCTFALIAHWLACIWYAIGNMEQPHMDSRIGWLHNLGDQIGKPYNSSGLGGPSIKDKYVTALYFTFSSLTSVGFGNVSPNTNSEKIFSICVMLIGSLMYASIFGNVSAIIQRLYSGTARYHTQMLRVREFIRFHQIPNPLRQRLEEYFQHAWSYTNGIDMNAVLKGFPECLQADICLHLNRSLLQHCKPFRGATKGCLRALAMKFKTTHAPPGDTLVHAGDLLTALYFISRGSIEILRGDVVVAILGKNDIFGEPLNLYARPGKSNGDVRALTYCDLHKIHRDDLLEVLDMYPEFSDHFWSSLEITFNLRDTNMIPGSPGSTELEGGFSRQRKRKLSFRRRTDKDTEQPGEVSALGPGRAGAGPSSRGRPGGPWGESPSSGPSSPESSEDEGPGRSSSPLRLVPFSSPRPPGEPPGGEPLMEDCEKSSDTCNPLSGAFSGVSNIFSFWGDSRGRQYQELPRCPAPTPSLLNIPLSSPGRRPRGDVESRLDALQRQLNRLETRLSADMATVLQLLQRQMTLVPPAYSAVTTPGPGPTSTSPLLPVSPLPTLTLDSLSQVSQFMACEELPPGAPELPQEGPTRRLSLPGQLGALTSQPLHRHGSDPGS

[16] = molecular target: T4, Peroxisome proliferator-activated receptor alpha (Homo sapiens, UniProt Q07869); assay: Binding affinity to PPARalpha
T4 sequence (Q07869 whole entry): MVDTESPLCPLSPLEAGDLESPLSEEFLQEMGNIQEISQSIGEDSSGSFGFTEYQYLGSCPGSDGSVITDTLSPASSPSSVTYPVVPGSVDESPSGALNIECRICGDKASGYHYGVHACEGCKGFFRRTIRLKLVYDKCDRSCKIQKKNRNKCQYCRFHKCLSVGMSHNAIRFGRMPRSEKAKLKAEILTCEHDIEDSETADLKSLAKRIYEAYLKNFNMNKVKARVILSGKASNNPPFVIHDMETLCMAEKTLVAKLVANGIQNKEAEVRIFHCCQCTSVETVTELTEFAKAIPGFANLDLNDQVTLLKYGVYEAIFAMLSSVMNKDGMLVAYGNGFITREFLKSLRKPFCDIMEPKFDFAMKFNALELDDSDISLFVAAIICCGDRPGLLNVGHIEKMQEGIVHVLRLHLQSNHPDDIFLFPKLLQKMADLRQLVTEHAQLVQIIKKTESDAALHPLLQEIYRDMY

[17] = Drug level in blood of sub-chronic rat joint pain efficacy model satellite animal group at 20 mg/kg bid measured on day 1 after 1 hr post dose; format: ADME, organism-based; parameters: dose 20 mg/kg; settings: read-out: Drug uptake
Blood = assay: Fraction unbound in rat blood; format: ADME, tissue-based
[18] = Drug level in rat blood at 0.28 mg/kg/hr, iv for 18 hrs; format: ADME, organism-based; parameters: route intravenous; settings: read-out: Drug uptake
[19] = Drug level in blood of complete Freund's adjuvant-induced rat inflammatory pain model at 3 mg/kg, po after 1 hr; format: ADME, organism-based; parameters: dose 3 mg/kg, route oral; settings: read-out: Drug uptake
[20] = Solubility in fasted state simulated intestinal fluid after 24 hrs; format: physicochemical
[21] = Oral bioavailability in cynomolgus monkey at 3 mg/kg; format: ADME, organism-based, Macaca fascicularis; settings: in vivo
[22] = Drug level in blood of sub-chronic rat joint pain efficacy model satellite animal group at 5 mg/kg bid measured on day 1 after 1 hr post dose; format: ADME, organism-based; parameters: dose 5 mg/kg; settings: read-out: Drug uptake
[23] = Aqueous solubility in water after 24 hrs; format: physicochemical
[24] = Blood clearance in cynomolgus monkey at 1 mg/kg, iv; format: ADME, organism-based, Macaca fascicularis; parameters: dose 1 mg/kg, route intravenous
[25] = Drug level in blood of complete Freund's adjuvant-induced rat inflammatory pain model at 2 mg/kg, po after 1 hr; format: ADME, organism-based; parameters: dose 2 mg/kg, route oral; settings: read-out: Drug uptake

Structure (SMILES): CC(C)COc1ccc(Cl)cc1-c1ccccc1-c1cccc(C(=O)[O-])n1.[Na+]
- concentration at 1 h [1]: 1070 nM
- solubility at 2 h [2]: 33 µg/mL
- pEC50 [3]: 5.40
- concentration at 1 h [4]: 948 nM
- pIC50 [5]: < 5.00
- Kp at 1 h [6]: 0.72
- CL [7]: 8 mL/min/g
- Kp at 1 h [8]: 0.27
- pKi (Thromboxane A2 receptor): 6.50
- CL (Liver microsomes): 1.9 mL/min/g
- Kp at 0.5 h [9]: 0.24
- clearance [10]: 8 mL/min/kg
- concentration at 1 h [11]: 822 nM
- logD [12]: 1.9
- pKi [13]: < 4.70
- pEC50 [14]: < 5.00
- pIC50 [15]: < 4.50
- pKi [16]: < 4.70
- concentration at 1 h [17]: 25900 nM
- Fu (Blood): 0.5%
- concentration at 18 h [18]: 1660 nM
- concentration at 1 h [19]: 3330 nM
- solubility at 24 h [20]: 1050 µg/mL
- bioavailability [21]: 34%
- concentration at 1 h [22]: 5270 nM
- solubility at 24 h [23]: 612 µg/mL
- clearance [24]: 26 mL/min/kg
- concentration at 1 h [25]: 2140 nM
